# According to patent US20020127287A1, “Treatment of lyso paf-mediated disorders with lyso paf or paf antagonists and procedure for determining their efficacy” (priority 1990, published 2002):
# Where “and” joins values, the source holds several entries; their conditions need not be identical. Equal entries are not always repeated. Marks after values point to notes of the source that are not given here.
# What was measured:
# [1] = molecular target: T1, paf receptors on neutrophils (PMN) (Homo sapiens, UniProt P25105); assay: [^3H]paf binding to intact human neutrophils (PMN)
# T1 construct: Neutrophils (PMN) were prepared from venous blood (40 ml) from normal donors; endogenous in cells; host or cells: intact neutrophils (PMN) from venous blood of normal donors
# Method: (§2) Neutrophils (PMN) were prepared from venous blood (40 ml) from normal donors, anticoagulated with citric acid dextrose (7:1, v/v) was sedimented for 30 to 45 min in gelatin 0.3% final (Plasmagel®). Twenty ml of supernatant were layered on 10 ml Ficoll Hypaque (d=1.077) and centrifuged (400×g, 20 min, 20° C.). The cell pellet containing PMN (95%) was resuspended in 500 μl Tyrode's buffer (pH=7.4). Erythrocyte lysis was performed by adding 3 volumes of distilled water for 40 sec. followed by 1 volume NaCl (3.5%, w/v). PMN were then washed twice in Tyrode's buffer (centrifugation at 370×g at 20° C. for 10 min). Cell concentration was adjusted to 5×10^7 per ml.
# (§3) Binding studies were performed using, for example, intact neutrophils (PMN) or intact human blood eosinophils. PMN (2.5×10^6) or eosinophils (2.5×10^5) were suspended in 500 μl Tyrode's buffer supplemented with 1.3 mM CaCl2, 1 mM MgCl2 and 0.25% (v/v) fatty acid-free bovine serum albumin (BSA, w/v) were incubated with [^3H]paf (0.325-6.5 nM) either for 30 min at 20° C. or for 20 hrs at 4° C. Non-specific binding was assessed with the unlabeled ligands either paf (500 nM) or the receptor antagonist WEB 2086 (1 μM or 400 nM).
# In a second set of experiments, [^3H]paf binding was performed by adding 3.25 nM [^3H]paf to PMN, simultaneously with low dose (5 to 50 nM) of paf, lyso paf, the enantiomer of paf or 2-lyso phosphatidylcholine (LPC) for 30 min at 20° C. [^3H]paf binding was also measured in the presence of the phorbol ester 4-phorbol-12-myristate-13-acetate (PMA, 1 to 16 nM) either added simultaneously with [^3H]paf or preincubated 15 min at 37° C. previously. […] After the binding procedure, cells were separated from their suspending medium by filtration in a millipore vacuum system with GF/C filters. Filters were washed with 10 ml Tyrode's buffer at 4° C. and radioactivity was assessed by scintillation. Cell-bound radioactivity on the filters after subtraction of blanks (filter-bound radioactivity in the absence of cells) was expressed in fmol [^3H]paf bound per 2.5×10^6 PMN or 2.5×10^5 eosinophils.
# [2] = molecular target: T2, paf receptors on eosinophils (Homo sapiens, UniProt P25105); assay: [^3H]paf binding to intact human eosinophils
# T2 construct: endogenous in cells; host or cells: intact human blood eosinophils (about 96% pure)
# Method: Eosinophils were also prepared under sterile conditions. Blood (400 ml) was mixed with 10% (v/v) dextran. The supernatant was carefully deposited on a metrizoate/ficoll suspension (d=1.148) after sedimentation of red blood cells and centrifuged (400×g: 40 min). Erythrocyte lysis was performed by adding 3 v. of distilled water for 40 sec, followed by 1 v. NaCl (3.5%, w/v). Cells were suspended in 500 μl pH 7.4 Tyrode's buffer, centrifuged (1900 rpm×10 min) and resuspended (5×10^6 cells/ml) in Tyrode's (0.25% BSA) without Ca^2+. The eosinophils fraction at 1×10^6 cells/ml contained 96±5% eosinophils, 3±3% neutrophils, 1±2% mononuclear cells and no free platelets (mean±s.d., n=3).
# as §3
# Eosinophils were added to Tyrode's (0.25% BSA, 1.3 mM CaCl2, 1 mM MgCl2) containing [3H]paf (0.325-6.5 nM) in the absence or presence of unlabeled paf, lyso paf, enantio-paf or lyso-phosphatidylcholine (LPC) (5, 10, 50, 500 nM) and/or the specific paf receptor antagonist WEB 2086 (400 nM). After the binding procedure, cells were separated from their suspending medium by filtration in a millipore vacuum system with GF/C filters. Filters were washed with 10 ml Tyrode's buffer at 4° C. and radioactivity was assessed by scintillation. Cell-bound radioactivity on the filters after subtraction of blanks (filter-bound radioactivity in the absence of cells) was expressed in fmol [^3H]paf bound per 2.5×10^6 PMN or 2.5×10^5 eosinophils.
# endothelial cell = assay: [^3H]paf binding to endothelial cells
# acetylhydrolase = acetylhydrolase activity, kinetic constants; assay type: biochemical, human; conditions: excess AAGPC
# Method: Acetylhydrolase activity was measured in lysates of resting platelets or platelets stimulated with thrombin (0.5 IU/ml, 1 min, 37° C.), in supernatants of thrombin-activated platelets with or without acid-treated (inactivation of acetylhydrolase) plasma and in native plasma. Samples were incubated for 10 min at 37° C. in the presence of 0.1 μCi [^3H]acetyl paf and concentrations of unlabeled paf varying from 5 to 35 μM. The microenvironment modulates the acetylhydrolase indicating the origin of plasma acetylhydrolase from activated platelets.
# [3] = system: endothelial cell prostacyclin release; assay: endothelial cell prostacyclin release (6-keto-PGF1-alpha); assay type: cell-based
# U 937 cells = assay: cAMP levels of U 937 cells; assay type: cell-based; conditions: cholesterol 60 μg/ml, 24 hrs
# Method: U 937 cells were grown in stationary suspension culture in RPMI 1640 containing 10% fetal calf serum (FCS) and 2 mM L-glutamine at 37° C. in a humidified atmosphere of 5% CO2 and 95% air. The cells were diluted with fresh medium (1/10, v/v) twice a week. After three days in culture, U 937 cells were centrifuged (1000×G for 10 min) and incubated for 24 hrs in RPMI 1640 medium containing 10% CPSR 1 (delipidated FCS) and 2 mM L-glutamine. Subsequently the cells were incubated in the delipidated FCS medium containing cholesterol (10-60 μg/ml), as compared with solvent alone (ethanol, 0.5% v/v, final concentration) for (2, 4 or 24 hrs).
# Cyclic AMP in supernatants from cholesterol-treated and control cells, were measured by the Rianen [^125I]cAMP-RIA Kit. Briefly, cholesterol (60 μg/ml, 24 hrs) or cholesterol vehicle (ethanol) were added after 24 hrs cell incubation in delipidated FCS medium. Cells were subsequently washed three times and resuspended (5×10^6, final concentration) in Hanks Hepes (HH)-buffer, pH 7.4 with ascorbinic acid (10 mM) and cAMP-phosphodiesterase inhibitor IBMX (1 mM). Cell suspension (100 μl) was added to 400 μl of the cAMP buffer for 30 min at 20° C. […] Values are from one experiment (representative of three) expressed as pmol cAMP per 10^6 cells. Total proteins were measured by standard procedure.
# eosinophils = assay: cytosolic free calcium (fura-2) in eosinophils; assay type: cell-based, human; conditions: EGTA 2 mM
# Method: (§1) The concentration of cytosolic free calcium [Ca^2+]i was measured using the [Ca^2+]i indicator fura-2-acetoxymethyl ester (fura-2). […] The spectrofluorophotometer was programmed to shuttle between the two excitation wavelengths of 340 and 380 nm every 5 sec while keeping the emission wavelength of 505 nm. […] Background values were subtracted from all data. The intracellular Ca^2+ was calculated with the formula [[…] is KD of the fura-2 multiplied with the quotient of the fluorescence at 380 nm from the minimal and the maximal [Ca^2+]i fluorescence.
# PMN = assay: cytosolic free calcium (fura-2) in PMN; assay type: cell-based, human
# Method: as §1
# [4] = system: lyso paf receptors on neutrophils (PMN); assay: [^3H]lyso paf binding to neutrophils (PMN); set-up: species or system human; conditions: for effect of unlabeled ligand on [^3H]lyso paf binding: excess unlabeled paf or lyso paf 500 nM, WEB 2086 1 μM, 20° C.
# Method: as §2
# The binding of [^3H]lyso paf (0.325-0.5 nM) was measured after 30 min incubation at 20° C. in the absence or presence of an excess of unlabeled lyso paf (500 nM), paf (500 nM) or WEB 2086 (1 μM). The effect of low dose paf (5 nM) on the binding of [^3H]lyso paf was also investigated. […] After the binding procedure, cells were separated from their suspending medium by filtration in a millipore vacuum system with GF/C filters. Filters were washed with 10 ml Tyrode's buffer at 4° C. and radioactivity was assessed by scintillation. Cell-bound radioactivity on the filters after subtraction of blanks (filter-bound radioactivity in the absence of cells) was expressed in fmol [^3H]paf bound per 2.5×10^6 PMN or 2.5×10^5 eosinophils.
# human platelets = assay: acetylhydrolase release from activated platelets; assay type: cell-based; conditions: Thrombin 0.5 IU/ml; for acetylhydrolase release: Paf 500 nM
# Method: Results are expressed as mean±S.D. or S.E. and statistics were performed using the “Mann Whitney” test (n=3, n=5 or n=6 as indicated).
# [5] = Add. 5 nM, [^3H]paf […], 20° C., 30 min, WEB 2086 1 μM
# T1 sequence (P25105 whole entry): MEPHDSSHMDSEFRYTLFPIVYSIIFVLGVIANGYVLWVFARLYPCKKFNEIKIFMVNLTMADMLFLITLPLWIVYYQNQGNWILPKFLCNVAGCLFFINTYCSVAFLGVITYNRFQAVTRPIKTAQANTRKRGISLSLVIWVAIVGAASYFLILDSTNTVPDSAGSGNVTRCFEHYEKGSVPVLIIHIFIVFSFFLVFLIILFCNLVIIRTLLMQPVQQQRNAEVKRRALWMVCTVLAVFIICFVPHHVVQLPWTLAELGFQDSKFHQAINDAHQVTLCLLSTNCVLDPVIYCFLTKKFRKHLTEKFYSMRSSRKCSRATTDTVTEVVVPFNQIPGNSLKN
# T2 sequence (P25105 whole entry): as above
compound,measurement,setting,value
2-lyso phosphocholine [LPC],[^3H]paf binding,[1]; [5],322 ± 22 fmol [^3H]paf bound per 2.5×10^6 PMN
same,interference with [3H]paf binding,[2],did not interfere
"CCCCCCCCCCCCCCCCCCNC(=O)OCC(COP(=O)([O-])OCC[n+]1ccsc1)OC (racemic) [CV 3988, rac-3-(N-n-octadecylcarbamoyloxy)-2-methoxypropyl 2-tiazolioethyl phosphate]",increased phospholipid binding (lysine aspirin) antagonized,endothelial cell,antagonized
"CCCCCCCCCCCCCCCCOCC(COP(=O)([O-])OCC[N+](C)(C)C)OC(=O)CCCCCCCCCCCCCCC (stereo not shown) [AAGPC, 1-O-hexadecyl-2-palmitoyl-GPC]",inhibition of acetylhydrolase activity,acetylhydrolase,not inhibited
COc1ccc(SCC(=S)N2CCc3c(sc4c3C(c3ccccc3Cl)=NCc3nnc(C)n3-4)C2)cc1OC [BN 50 739],inhibited endothelial cell bound [^3H]paf,endothelial cell; 20 μM,5.8 fmol
CC1C(=O)OC2C(O)C34C5CC(C(C)(C)C)C36C(OC(=O)C6O)OC4(C(=O)O5)C12O (stereo not shown) [BU 52021],endothelial cell prostacyclin release,"[3]; 10 μM, increased from 50±2",126±10 pg per ml
"CC(C)CCC[C@@H](C)[C@H]1CC[C@H]2[C@@H]3CC=C4C[C@@H](O)CC[C@]4(C)[C@H]3CC[C@]12C [Cholesterol, cholesterol]",release of cAMP levels,U 937 cells,increased
CC(=O)Oc1ccccc1C(=O)O.NCCCCC(N)C(=O)O [Lysine aspirin],"endothelial cell bound [^3H]paf, % of the total binding",endothelial cell,177% and 198%
"CCCCCCCCCCCCCC(=O)O[C@@H]1[C@@H](C)[C@@]2(O)[C@@H](C=C(CO)C[C@]3(O)C(=O)C(C)=C[C@@H]23)[C@@H]2C(C)(C)[C@]12OC(C)=O [PMA, phorbol-12-myristate-13-acetate]",[^3H]paf binding,"[1]; PMA 1 nM, preincubation 0 min at 37° C.",385 fmol [^3H]paf bound per 2.5×10^6 PMN
same,[^3H]paf binding,"[1]; PMA 1 nM, preincubation 15 min at 37° C.",413 fmol [^3H]paf bound per 2.5×10^6 PMN
same,[^3H]paf binding,"[1]; PMA 16 nM, preincubation 0 min at 37° C.",219 fmol [^3H]paf bound per 2.5×10^6 PMN
same,[^3H]paf binding,"[1]; PMA 16 nM, preincubation 15 min at 37° C.",171 fmol [^3H]paf bound per 2.5×10^6 PMN
"Cc1nnc2n1-c1sc(CCC(=O)N3CCOCC3)cc1C(c1ccccc1Cl)=NC2 [WEB 2086, 3-(4-(2-chlorophenyl)-9-methyl-6H-thieno(3,2-f) (1,2,4)triazolo-(4,3-a)-(1,4)diazepine-2-yl)-1-(4-morpholinyl)-1-propanone]",increased phospholipid binding (lysine aspirin) antagonized,endothelial cell,antagonized
same,effect on paf-mediated [Ca^2+]i rise,eosinophils,competitively inhibited
same,effect on paf-induced Ca^2+ flux,"PMN; WEB 2086 1 μM, 3 min preincubation",shifted to the right the paf dose-response curve
same,effect of unlabeled ligand on [^3H]lyso paf binding,[4],inefficient
same,binding of […] [^3H]lyso paf,[4]; paf 5 nM with WEB 2086 1 μM,212.0±6.4 fmol/2.5×10^6 PMN
same,6-keto-PGF1-alpha,"[3]; 100 nM WEB 2086, increased from 127±3",145±11 pg per ml
same,effect of excess unlabeled ligand on [^3H]paf binding,"[1]; paf 500 nM, WEB 2086 1 μM",inhibited
same,"specific [^3H]paf binding, plateau values","[2]; 20° C., 30 min, WEB 2086 400 nM, 3 experiments",25.8 ± 8.1 fmol
same,specific [^3H]paf binding,"[2]; 20° C., 30 min, WEB 2086 400 nM, 3 other experiments, no inhibitory effect",4.3 ± 3.3 fmol
same,"specific [^3H]paf binding, maximal plateau values","[2]; 20 hrs at 4° C., assessed with unlabeled paf 500 nM or WEB 2086 400 nM",14.8±5.1 fmol per 2.5×10^5 cells
same,specific [^3H]paf binding,"[2]; addition 0 nM, WEB 2086 400 nM, 20° C., 30 min",15.1 ± 8.0^1) fmol per 2.5×10^5 cells
CCCCCCCCCCCCCCCCCCOC[C@H](COP(=O)([O-])OCC[N+](C)(C)C)OC(C)=O [[^3H]paf] [1-O-[^3H]-octadecyl-2-acetyl-sn-glycero-3-phosphocholine],Kd,[1]; 4° C.,0.44 nM
same,total binding of [^3H]paf,[1]; 4° C.,157.0±27.4 fmol per 2.5×10^6 cells
same,total binding of [^3H]paf,[1]; 20° C.,310.5±13.0 fmol per 2.5×10^6 cells
same,binding sites per eosinophil,[2],85×10^3 sites per eosinophil
same,Bmax,[2]; 20 hrs at 4° C.,35.4 fmol per 2.5×10^5 cells
same,Kd,"[2]; 20 hrs at 4° C., read-out: binding affinity (Kd) on eosinophils",5.5 nM
"CCCCCCCCCCCCCCCCCCOC[C@@H](O)COP(=O)([O-])OCC[N+](C)(C)C [lyso paf, 1-octadecyl-sn-glycero-3-phosphocholine]",cytoplasmic Ca^2+ flux in response to agonist,"PMN; 1 to 500 nM, CaCl2 1.3 mM or EGTA 2 mM",induced neither [Ca^2+]i entry nor mobilization
same,effect of unlabeled ligand on [^3H]lyso paf binding,[4],inhibited
same,[^3H]paf binding,[1]; [5],354 ± 20 fmol [^3H]paf bound per 2.5×10^6 PMN
same,[^3H]paf binding,"[1]; Add. 10 nM, [^3H]paf […], 20° C., 30 min, WEB 2086 1 μM",243 ± 16 fmol [^3H]paf bound per 2.5×10^6 PMN
same,[^3H]paf binding,"[1]; Add. 50 nM, [^3H]paf […], 20° C., 30 min, WEB 2086 1 μM",240 ± 18 fmol [^3H]paf bound per 2.5×10^6 PMN
same,interference with [3H]paf binding,[2],did not interfere
same,specific [^3H]paf binding,"[2]; addition 5 nM, WEB 2086 400 nM, 20° C., 30 min",1.5 ± 1.7 fmol per 2.5×10^5 cells
same,specific [^3H]paf binding,"[2]; addition 10 nM, WEB 2086 400 nM, 20° C., 30 min",1.2 ± 1.6 fmol per 2.5×10^5 cells
same,specific [^3H]paf binding,"[2]; addition 50 nM, WEB 2086 400 nM, 20° C., 30 min",4.4 ± 3.7 fmol per 2.5×10^5 cells
Thrombin,released of the total acetylhydrolase,"human platelets; paf 500 nM, mean±S.E., n=3",17.2±3.1%
same,acetylhydrolase release,human platelets; stimulation 0 sec,2.2 ± 0.9 percentage of the total content of acetylhydrolase
same,acetylhydrolase release,human platelets; stimulation 15 sec,8.5 ± 0.7 percentage of the total content of acetylhydrolase
same,acetylhydrolase release,human platelets; stimulation 30 sec,13.1 ± 3.9 percentage of the total content of acetylhydrolase
same,acetylhydrolase release,human platelets; stimulation 60 sec,12.8 ± 5.1 percentage of the total content of acetylhydrolase
same,acetylhydrolase release,human platelets; stimulation 120 sec,10.9 ± 3.1 percentage of the total content of acetylhydrolase
same,acetylhydrolase release,human platelets; stimulation 180 sec,17.9 ± 2.6 percentage of the total content of acetylhydrolase
same,acetylhydrolase release,human platelets; stimulation 300 sec,17.2 ± 3.1 percentage of the total content of acetylhydrolase
